The nature of data set [1]: Apparent lipophilicity from reverse-phase HPLC at pH 7.4. The format is physicochemical. Particulars: not told. An excerpt: (b) Extrapolated reverse phase capacity factors in MOPS buffer at pH 7.4.
For data set [2], the target named is T1, 5-HT-3 receptor (Rattus norvegicus, UniProt P35563).
T1 sequence (P35563 24-483): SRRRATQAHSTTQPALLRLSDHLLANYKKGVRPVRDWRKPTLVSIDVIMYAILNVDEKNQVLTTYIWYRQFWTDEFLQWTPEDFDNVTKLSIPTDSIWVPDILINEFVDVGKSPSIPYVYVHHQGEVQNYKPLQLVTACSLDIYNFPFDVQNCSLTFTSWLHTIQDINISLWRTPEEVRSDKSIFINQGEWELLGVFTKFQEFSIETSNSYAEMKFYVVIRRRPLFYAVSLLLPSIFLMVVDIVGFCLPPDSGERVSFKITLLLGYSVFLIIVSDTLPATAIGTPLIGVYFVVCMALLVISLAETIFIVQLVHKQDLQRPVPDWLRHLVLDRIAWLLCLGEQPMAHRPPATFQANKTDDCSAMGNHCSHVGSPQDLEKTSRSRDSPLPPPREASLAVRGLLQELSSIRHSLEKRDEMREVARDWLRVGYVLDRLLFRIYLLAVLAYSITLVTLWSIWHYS
In kind it is binding. Further details: from tissue; host or cells: rat entorhinal cortex homogenate / membranes. To be noted: rat entorhinal cortex. From the text: In all FIGS. 1-3, triangles represent total binding, open circles represent non-specific binding, and darkened circles represent specific binding.

In data set [3] the target is T1, 5-HT-3 receptor.
Description: Evaluation of the compounds of the present invention was performed by incubating the radiolabeled agent with tissue homogenates known to contain these receptors. By inhibiting the binding with various concentrations of competing ligands the relative potencies of unlabeled analogs were determined. The apparent lipophilicities of the compounds of the invention were estimated from the retention times in reverse-phase HPLC at pH 7.4.
The next data set deals with drug-induced anxiety. Particulars: literature; cited from earlier work.
The subject of data set [4] is 5-HT-3 receptor. Particulars: literature, cited from earlier work.
Another data set concerns animal behavioral models. To be noted: literature; cited from earlier work.
The test system of another data set is emesis. To be noted: literature; cited from earlier work.
The mark [5] stands for this setting: extrapolated reverse phase capacity factors in MOPS buffer, read-out: log Papp (apparent lipophilicity).
The mark [6] stands for this setting: Ki, displacement of 0.64 nM [^125 I]-4 binding, Table 3, rat entorhinal cortex homogenate, HEPES buffer, nine concentrations 0.3 to 300 nM, triplicates.

Where two headings read alike, the source gives them in different places.

For the compound `CCOc1ccc(I)cc1C(=O)N[C@@H]1CN2CCC1CC2` [TDP 916], the chromatographic logD in data set [1] (setting [5]) is 2.38.
On 5-HT-3 receptor [2], `COc1cc([125I])cc(C(=O)N[C@@H]2CN3CCC2CC3)c1OC` [[^125 I]-4, (S)-N-[3-(1-azabicyclo[2.2.2]octyl)]-2,3-dimethoxy-5-[^125 I]iodobenzamide] showed a Kd of 1.5 nM. In other words, the single-digit nanomolar range.
Regarding `COc1ccc(I)cc1C(=O)N[C@@H]1CN2CCC1CC2` [TDP 915], the chromatographic logD in data set [1] (setting [5]) is 2.15.
Take `C#CCOc1c(I)cc(Cl)cc1C(=O)N[C@@H]1CN2CCC1CC2` [TDP 1053]: the chromatographic logD in data set [1] (setting [5]) was 2.57.
`COc1ccc(F)cc1C(=O)N[C@@H]1CN2CCC1CC2` [TDP 1087]: in data set [1] (setting [5]), the chromatographic logD was 1.34.
For `O=C(N[C@@H]1CN2CCC1CC2)c1cc(Cl)cc(I)c1OCCCF` [TDP 1050], the chromatographic logD in data set [1] (setting [5]) is 2.38.
Turning to `CCOc1c(I)cc(Cl)cc1C(=O)N[C@@H]1CN2CCC1CC2` [TDP 1059], the chromatographic logD in data set [1] (setting [5]) was 2.47.
Same read-out and setting: in the case of `CCOc1cc(Br)cc(C(=O)N[C@@H]2CN3CCC2CC3)c1OC` [TDP 924] it was 2.14; in that of `O=C(N[C@@H]1CN2CCC1CC2)c1cc(I)ccc1OCCF` [TDP 920], 2.15; in that of `COc1cc(Cl)cc(C(=O)N[C@@H]2CN3CCC2CC3)c1OCCF` [TDP 994], 1.58.
For `CCN1CCC[C@H]1CNC(=O)c1cc(I)cc(OC)c1OC` [epidepride], the inhibition constant Ki on 5-HT-3 receptor [3] came out at 1040 nM.
Regarding `CCCOc1c(I)cc(Cl)cc1C(=O)N[C@@H]1CN2CCC1CC2` [TDP 1065], the chromatographic logD in data set [1] (setting [5]) is 2.7.
For `COc1cc(Br)cc(C(=O)N[C@@H]2CN3CCC2CC3)c1OC` [TDP 923], the chromatographic logD in data set [1] (setting [5]) was 1.74.
With `c1ccc2nc(N3CCNCC3)ccc2c1` [quipazine], the Ki on 5-HT-3 receptor [3] (setting [6]) stood at 0.48 nM.
As for `CCOc1c(OC)cc(I)cc1C(=O)N[C@@H]1CN2CCC1CC2` [TDP 1022], the chromatographic logD in data set [1] (setting [5]) is 2.19.
Take `O=C(N[C@@H]1CN2CCC1CC2)c1cc(Cl)cc(I)c1OCCF` [TDP 1056]: in data set [1] (setting [5]), the chromatographic logD was 1.95.
Consider `CCCOc1ccc(I)cc1C(=O)N[C@@H]1CN2CCC1CC2` [TDP 9l7], for which the chromatographic logD in data set [1] (setting [5]) is 2.81.
As to `O=C(N[C@@H]1CN2CCC1CC2)c1cc(I)ccc1OCCCF` [TDP 921], the chromatographic logD in data set [1] (setting [5]) was 2.44.
Same read-out and setting: in the case of `COc1c(OCCF)cc(Cl)cc1C(=O)N[C@@H]1CN2CCC1CC2` [TDP 999] it was 1.7.
Turning to `COc1cc(I)cc(C(=O)N[C@H]2CN3CCC2CC3)c1OC` [TDP 991, (R)-N-[3-1-Azabicyclo [2.2.2.]octyl]-5-iodo-2,3-dimethoxy-benzamide], the chromatographic logD in data set [1] (setting [5]) is 1.87. Further, the affinity on 5-HT-3 receptor [3] (setting [6]), expressed as Ki, was 19 nM.
`CN1[C@@H]2CC[C@H]1C[C@@H](OC(=O)c1cc(Cl)cc(Cl)c1)C2` [bemestron]: the affinity on 5-HT-3 receptor [3] (setting [6]), expressed as Ki, was 18.3 nM.
`COc1c(I)cc(Cl)cc1C(=O)N[C@@H]1CN2CCC1CC2` [TDP 1040]: the chromatographic logD in data set [1] was found to be 2.34.
As to `COc1cc(Cl)cc(C(=O)N[C@@H]2CN3CCC2CC3)c1OC/C=C/I` [TDP 984], the chromatographic logD in data set [1] (setting [5]) was 2.58.
Same read-out and setting: in the case of `C=CCOc1c(I)cc(Cl)cc1C(=O)N[C@@H]1CN2CCC1CC2` [TDP 1046] it was 2.63.
In the case of `COc1cc(I)cc(C(=O)N[C@@H]2CN3CCC2CC3)c1OC` [TDP 960], the chromatographic logD in data set [1] (setting [5]) is 1.87. Further, on 5-HT-3 receptor [3] (setting [6]), the inhibition constant (Ki) is 1.35 nM.
As to `COc1cc(N)c(Cl)cc1C(=O)N[C@H]1CN2CCC1CC2` [(R)-zacopride, 5-chloro-4-amino-2-methoxy-N-(3-quinuclidinyl)benzamide], the “block of drug-induced anxiety” value with drug-induced anxiety is on record as “able to block drug-induced anxiety”. In addition, the “affinity for the 5-HT-3 receptor relative to (S)-zacopride” value in the data set with 5-HT-3 receptor [4] was “ten times lower affinity”. Besides, the cognitive-enhancing properties result with animal behavioral models is reported as “shows cognitive-enhancing properties”.
Consider `COc1ccc(Br)cc1C(=O)N[C@@H]1CN2CCC1CC2` [TDP 922], for which the chromatographic logD in data set [1] (setting [5]) was 2.02.
Turning to `COc1cc(N)c(Cl)cc1C(=O)N[C@@H]1CN2CCC1CC2` [(S)-zacopride, 5-chloro-4-amino-2-methoxy-N-(3-quinuclidinyl)benzamide], in the data set on drug-induced anxiety, the “block of drug-induced anxiety” value was “inactive”. In addition, the inhibitory constant (Ki) is 0.3 nM at 5-HT-3 receptor [4] ((S)-form of zacopride) and 0.38 nM at 5-HT-3 receptor [3] (setting [6]). The antiemetic activity entry in the data set with emesis is “effective antiemetic agent”.
On to `C=CCOc1ccc(I)cc1C(=O)N[C@@H]1CN2CCC1CC2` [TDP 918], for which the chromatographic logD in data set [1] (setting [5]) was 2.76.
Still for that read-out and setting: in the case of `CC(C)Oc1c(I)cc(Cl)cc1C(=O)N[C@@H]1CN2CCC1CC2` [TDP 1062] it was 2.45; in that of `CC(C)Oc1ccc(I)cc1C(=O)N[C@@H]1CN2CCC1CC2` [TDP 919], 2.52.

For orientation: Kd means a measure of binding affinity in units of concentration. The low end stands for higher affinity, the high end for lower affinity. The Ki is the dissociation constant of the complex between target and ligand, obtained from inhibition or displacement.

(Values after patent US5723103A, “Substituted benzamides and radioligand analogs and methods of use” (Vanderbilt University, priority 1994, dated 1998).)
